The values below come from patent US8741962B2, “Process for preparation of Rasagiline and salts thereof” (USV Limited, priority 2009, dated 2014).

Several values for one entry are separate records, joined by “and”; a condition that tells them apart may be missing. Equal values may be shown once. Read-outs that look alike come from different tables or passages of the source.

Series [1] is described as follows: Particle size determination by dry method (Malvern Mastersizer 2000, Scirocco 2000 dry unit). To be noted: for d10 / d50 / d90: not micronized, as obtained by the process.
Protocol: Rasagiline mesylate is further micronized using conventional micronization techniques. After micronization, the sample is preferably passed through 100 mesh sieve and the particle size is measured using a Malvern Mastersizer 2000 dry unit, Scirocco 2000 which is commercially available from Malvern Instruments Ltd., United Kingdom.
The text on series [2]:
The present inventors have conducted extensive research work for solving the problem of agglomerization of micronized Rasagiline or salt thereof.

The conditions of series [3]: wet method.
The source holds these as a separate data set.
Where [4] appears, read: after micronization, dry method.
[5] abbreviates: before micronization, dry method.
Where [6] appears, read: Pack-1 (Glass bottle), after one month.
The mark [7] stands for this setting: Pack-1 (Glass bottle), micronized sample (initial).
Where [8] appears, read: Pack-2 (PET bottle), after one month.
The mark [9] stands for this setting: Pack-2 (PET bottle), micronized sample (initial).
[10] abbreviates: room temperature, glass bottle or PET bottle, about one month.

As to `Br.C#CCN[C@@H]1CCc2ccccc21` [R(+)-Rasagiline hydrobromide, (1R)-2,3-dihydro-N-2-propynyl-1H-indane-1-amine hydrobromide], the “size of 90% of the total amount by volume of particles” value in series [1] (micronized, dry method) is listed as “less than 20 microns”. In addition, in series [1], the d10 is given as 2-9 μ, the d50 is reported as 10-20 μ and the d90 is on record as 40-80 μ.

Turning to `C#CCN[C@@H]1CCc2ccccc21.CS(=O)(=O)O` [R(+)-Rasagiline mesylate, (1R)-2,3-dihydro-N-2-propynyl-1H-indane-1-amine mesylate], in series [1] (setting [4]), the “Particle Size Distribution D10” value was 1.44 micron and 1.43 micron; the “Particle Size Distribution D50” value is 3.00 micron and 2.90 micron; the “Particle Size Distribution D90” value was 5.94 micron and 5.74 micron. Also, in series [1] (setting [5]), the “Particle Size Distribution D10” value is 3.65 micron and 3.18 micron; the “Particle Size Distribution D50” value is 15.27 micron and 13.33 micron; the “Particle Size Distribution D90” value is 57.38 micron and 47.11 micron. Besides, in series [1] (micronized), the “particle size of 50% of particles” value is given as “less than or equal to 4 μ” and the “particle size of 90% of particles” value is reported as “less than or equal to 9 μ”. Besides, in series [1], the d10 is on record as 2-9 μ, the d50 is 10-20 μ and the d90 was 40-80 μ. Besides, in series [2] (setting [6]), the D10 worked out at 1.70, the D50 amounted to 3.66 and the D90 is on record as 7.55. In addition, in series [2] (setting [7]), the D10 is reported as 1.40, the D50 is on record as 3.33 and the D90 worked out at 7.88. In series [2] (setting [8]), this compound displayed a D10 of 1.41, a D50 of 2.97 and a D90 of 5.64. In series [2] (setting [9]), this compound came in with a D10 of 1.43, a D50 of 2.90 and a D90 of 5.74. Moreover, in series [2] (setting [10]), the “Agglomeration of the particles on storage” value is listed as “no agglomeration of the particles was observed”; the “Change in XRPD pattern and particle size on storage” value is “no change in XRPD pattern and particle size”. Also, the “Particle Size Distribution D90” value in series [3] (after micronization) is 796.35 micron and 1007.18 micron. In series [3] (before micronization), the “Particle Size Distribution D50” value is 141.23 micron and 174.70 micron; the “Particle Size Distribution D90” value was 590.45 micron and 832.14 micron.

For `C#CCN[C@@H]1CCc2ccccc21.Cl` [R-(+)-Rasagiline hydrochloride, (1R)-2,3-dihydro-N-2-propynyl-1H-indane-1-amine hydrochloride], the “size of 90% of the total amount by volume of particles” value (micronized) is “less than 20 microns”. Also, the “size of 90% particles” value (not micronized) was “less than 500 microns”.
